# Source: patent EP0335369A2, “New anthracycline derivatives and processes for the preparation of the same” (priority 1988, dated 1989)
# Like-named read-outs stand apart in the source and are kept apart here.
# Assays:
# [1] = Solubility in phosphate buffer solution of pH 7.4 at room temperature; type: physicochemical; settings: for solubility: room temperature; for solubility in the phosphate buffer solution (in words): phosphate buffer solution (0.05 M KH2PO4-NaOH) at pH 7.4
# Leukemia L-1210 cells [2] = assay: Test 3: antitumor activity against leukemia induced in CDF1 mice by Leukemia L-1210 cells (procedure of Test 1 repeated); type: in vivo; settings: intraperitoneally once per day for 9 consecutive days, observation 60 days
# Description: Antitumor activities against leukemia in CDF1 mice as induced by mouse leukemia, Leukemia L-1210 cells
# To evaluate the antitumor effects of the compounds of the formula (I') according to the sixth aspect of this invention against experimental tumors in animals, the procedure of Test 1 given hereinbefore is repeated. Thus, CDF1 mice were intraperitoneally transplanted with cells of Leukemia L-1210 (at a dose of 1 x 10^5 cells/mouse). After an elapsed time of 24 hours from the tumor transplantation, a test compound of the formula (I') of the sixth aspect invention to be evaluated was administered intraperitoneally for 9 consecutive days once per day. Observation was made for 60 day, where survival days of each mouse tested were recorded. In comparison with the control test wherein mice were treated with the administration of physiological saline alone, the increase (%) in the life-span of the treated mice was calculated as T/C %, where T is the mean survival days of the treated animals and C is the mean survival days of the untreated control animals. For the comparison, daunomycin and adriamycin were also tested in the same manner.
# Leukemia L-1210 cells [3] = assay: Test 1: antitumor activity against leukemia induced in CDF1 mice by Leukemia L-1210 cells (life-span increase); type: in vivo; settings: intraperitoneally once per day for 9 consecutive days, observation 60 days
# Description: Antitumor activities against leukemia in CDF, mice as induced by mouse leukemia, Leukemia L-1210 cells
# After an elapsed time of 24 hours, a compounds of the formula (I) of this invention to be tested was administered intraperitoneally for 9 consecutive days once per day. Observation was made for 60 days, where survival days of each mouse tested were recorded. In comparison with the control test wherein mice were treated with the administration of physiological saline alone, the increase (%) in the life-span of the treated mice was calculated as T/C %, where T is the mean survival days of the treated animals and C is the mean survival days of the untreated control animals. For the comparison, daunomycin and adriamycin were also tested in the same manner.
# P388/ADR (resistant) = assay: Test 2: growth inhibition of cultured mouse leukemia cells, 72 hours incubation; type: cell-based; settings: P 388/ADR cells
# Description: (§1) 7-O-(2,6-Dideoxy-2-fluoro-«-L-mannopyranosyl)adriamycinone 14-O-hemipimelate, which is a compounds according to this invention, was then added at varying concentrations. The incubation of the cells was thereafter continued for 72 hours to measure the 50% inhibitory concentration (ICso, ng/m t) of the test compound against the growth of the tunmor cells.
# [4] = test system: mouse leukemia P 388/S (sensitive); assay: as above; type: cell-based; settings: P 388/S cells
# Description: as §1
# [5] = aqueous buffer, compounds (Ic), phosphate buffer solution of pH 7.4 (0.05 M KH2PO4-NaOH), read-out: Solubility
# [6] = aqueous buffer, compounds (I'-c) or (I'-d), phosphate buffer solution of pH 7.4 (0.05M KH2PO4-NaOH), read-out: Solubility
molecule,measurement,setting,value
"4-demethoxy-7-O-(2,6-dideoxy-2-fluoro-α-L-talopyranosyl)adriamycinone 14-0-hemisuberate [Example 19]",solubility,"[1]; compounds (I'-c) or (I'-d), phosphate buffer solution of pH 7.4 (0.05M KH2PO4-NaOH)",<1000 µg/mL
same,solubility in the phosphate buffer solution (in words),[1],scarcely soluble
same,"% Increase in life-span (T/C, %)",Leukemia L-1210 cells [2]; Dose 0.04 mg/kg/day,93%
same,"% Increase in life-span (T/C, %)",Leukemia L-1210 cells [2]; Dose 0.08 mg/kg/day,96%
same,"% Increase in life-span (T/C, %)",Leukemia L-1210 cells [2]; Dose 0.15 mg/kg/day,138%
same,"% Increase in life-span (T/C, %)",Leukemia L-1210 cells [2]; Dose 0.3 mg/kg/day,175%
same,"% Increase in life-span (T/C, %)",Leukemia L-1210 cells [2]; Dose 0.6 mg/kg/day,245%
same,"% Increase in life-span (T/C, %)",Leukemia L-1210 cells [2]; Dose 1.25 mg/kg/day,158%
COc1cccc2c1C(=O)c1c(O)c3c(c(O)c1C2=O)C[C@@](O)(C(=O)COC(=O)CCCCCC(=O)O)C[C@@H]3O[C@@H]1O[C@@H](C)[C@H](O)[C@@H](O)[C@H]1F [Example 9],"% Increase in life-span (T/C, %)",Leukemia L-1210 cells [3]; Dose 0.15 mg/kg/day,123%
same,"% Increase in life-span (T/C, %)",Leukemia L-1210 cells [3]; Dose 0.3 mg/kg/day,274%
same,"% Increase in life-span (T/C, %)",Leukemia L-1210 cells [3]; Dose 0.6 mg/kg/day,>329%
same,"% Increase in life-span (T/C, %)",Leukemia L-1210 cells [3]; Dose 1.25 mg/kg/day,>346%
same,"% Increase in life-span (T/C, %)",Leukemia L-1210 cells [3]; Dose 2.5 mg/kg/day,>686%
same,"% Increase in life-span (T/C, %)",Leukemia L-1210 cells [3]; Dose 5 mg/kg/day,>463%
same,IC50,"P388/ADR (resistant); Mus musculus, P388/ADR, read-out: IC50 (ng/mℓ) P 388/ADR",39.8 ng/mL
same,IC50,"[4]; Mus musculus, P388/S, read-out: IC50 (ng/mℓ) P 388/S",0.3 ng/mL
same,solubility,[1]; [5],32000 µg/mL
"C[C@@H]1O[C@@H](O[C@H]2C[C@](O)(C(=O)COC(=O)CCCCCC(=O)O)Cc3c(O)c4c(c(O)c32)C(=O)c2ccccc2C4=O)[C@H](F)[C@H](O)[C@H]1O [Example 11, 7-O-(2,6-dideoxy-2-fluoro-a-L-mannopyranosyl)-4-demethoxyadriamycinone 14-0-hemipimelate]","% Increase in life-span (T/C, %)",Leukemia L-1210 cells [3]; Dose 0.15 mg/kg/day,121%
same,"% Increase in life-span (T/C, %)",Leukemia L-1210 cells [3]; Dose 0.3 mg/kg/day,>363%
same,"% Increase in life-span (T/C, %)",Leukemia L-1210 cells [3]; Dose 0.6 mg/kg/day,175%
same,"% Increase in life-span (T/C, %)",Leukemia L-1210 cells [3]; Dose 1.25 mg/kg/day,111%
same,solubility,[1]; [5],< 1000 µg/mL
"CCCCC(=O)OCC(=O)[C@]1(O)Cc2c(O)c3c(c(O)c2[C@@H](O[C@@H]2O[C@@H](C)[C@@H](O)[C@@H](O)[C@H]2F)C1)C(=O)c1ccccc1C3=O [Example 14, 4-demothoxy-7-O-(2,6-dideoxy-2-fluoro-α-L-talopyranosyl)adriamycinone 14-0-valerate]",solubility,[1]; [6],< 1000 µg/mL
"C[C@@H]1O[C@@H](O[C@H]2C[C@](O)(C(=O)COC(=O)CCCC(=O)O)Cc3c(O)c4c(c(O)c32)C(=O)c2ccccc2C4=O)[C@H](F)[C@H](O)[C@@H]1O [Example 16, 4-demethoxy-7-O-(2,6-dideoxy-2-fluoro-α-L-talopyranosyl)adriamycinone 14-0-hemiglutarate]",solubility,[1]; [6],10000 µg/mL
same,solubility in the phosphate buffer solution (in words),[1],soluble
"C[C@@H]1O[C@@H](O[C@H]2C[C@](O)(C(=O)COC(=O)CCCCC(=O)O)Cc3c(O)c4c(c(O)c32)C(=O)c2ccccc2C4=O)[C@H](F)[C@H](O)[C@@H]1O [Example 17, 4-demethoxy-7-O-(2,6-dideoxy-2-fluoro-α-L-talopyranosyl)adriamycinone 14-0-hemiadipate]",solubility,[1]; [6],6000 µg/mL
same,"% Increase in life-span (T/C, %)",Leukemia L-1210 cells [2]; Dose 0.04 mg/kg/day,99%
same,"% Increase in life-span (T/C, %)",Leukemia L-1210 cells [2]; Dose 0.08 mg/kg/day,99%
same,"% Increase in life-span (T/C, %)",Leukemia L-1210 cells [2]; Dose 0.15 mg/kg/day,130%
same,"% Increase in life-span (T/C, %)",Leukemia L-1210 cells [2]; Dose 0.3 mg/kg/day,166%
same,"% Increase in life-span (T/C, %)",Leukemia L-1210 cells [2]; Dose 0.6 mg/kg/day,242%
same,"% Increase in life-span (T/C, %)",Leukemia L-1210 cells [2]; Dose 1.25 mg/kg/day,> 296%
"C[C@@H]1O[C@@H](O[C@H]2C[C@](O)(C(=O)COC(=O)CCCCCC(=O)O)Cc3c(O)c4c(c(O)c32)C(=O)c2ccccc2C4=O)[C@H](F)[C@H](O)[C@@H]1O [Example 18, 4-demethoxy-7-O-(2,6-dideoxy-2-fluoro-a-L-talopyranosyl)adriamycinone 14-0-hemipimelate]",solubility,[1]; [6],< 1000 µg/mL
same,solubility in the phosphate buffer solution (in words),[1],scarcely soluble
"COc1cccc2c1C(=O)c1c(O)c3c(c(O)c1C2=O)C[C@@](O)(C(=O)COC(=O)CCCCCC(=O)O)C[C@@H]3O[C@@H]1O[C@@H](C)[C@@H](O)[C@@H](O)[C@H]1F [Referential compound, 7-O-(2,6-dideoxy-2-fluoro-«-L-talopyranosyl)-adriamycinone 14-0-hemipimelate, reference compound]",IC50 (ng/mℓ) P 388/ADR,P388/ADR (resistant),485 ng/mL
same,IC50 (ng/mℓ) P 388/S,[4],3.3 ng/mL
